The record followed here is patent US8895504B2, “Amylin derivatives” (priority 2008, dated 2014).

This assay deals with T1, Amylin 3(a) receptor (human calcitonin receptor (CTa) and RAMP-3) (Homo sapiens, UniProt O60896+P30988).
T1 construct: expressed in transfected cells; host or cells: BHK570 cells, stably transfected with a CRE-luciferase reporter
As to the kind of experiment: Luciferase assay (III), BHK Amylin 3(a)//CRE-luc cells. It is filed as cell-based. The conditions noted are these: BHK cells with Amylin 3(a) receptor and CRE luciferase reporter, 4 hours incubation. Put shortly:
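BHK570 cells stably expressing CTa, RAMP-3 and a CRE-luciferase reporter, seeded at about 20,000 cells/well and grown overnight. Cells were exposed to standard or sample for 4 h at 37° C in phenol red-free DMEM with 10% FBS and 10 mM Hepes, pH 7,4. Luminescence was read after 30 min LucLite at room temperature.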
On the technique in general: In a reporter assay the amount or activity of a reporter protein is the signal.

Like-named read-outs stand apart in the source and are kept apart here. *1 amine or outer side, *2 acyl side, *3 side chain or, on linkers, in order; H or OH if unused. Where a SMILES comes first, the peptide text is derived from it. Bridges are numbered along the chain shown (N, C = ends). The star is where a group is joined. C20 diacid = O=C(O)CCCCCCCCCCCCCCCCCCC(=O)*; C18 diacid = O=C(O)CCCCCCCCCCCCCCCCC(=O)*; γGlu = O=C(O)[C@H](CCC(=O)[*:2])N[*:1]; Trx = NC[C@H]1CC[C@H](C(=O)O)CC1; AEEA = NCCOCCOCC(=O)O; GABA = NCCCC(=O)O

T1 sequence (O60896 24-148): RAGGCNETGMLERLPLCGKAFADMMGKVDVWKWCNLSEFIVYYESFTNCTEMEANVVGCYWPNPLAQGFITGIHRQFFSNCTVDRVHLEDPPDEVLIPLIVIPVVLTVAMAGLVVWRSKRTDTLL
T1 sequence (P30988 25-474): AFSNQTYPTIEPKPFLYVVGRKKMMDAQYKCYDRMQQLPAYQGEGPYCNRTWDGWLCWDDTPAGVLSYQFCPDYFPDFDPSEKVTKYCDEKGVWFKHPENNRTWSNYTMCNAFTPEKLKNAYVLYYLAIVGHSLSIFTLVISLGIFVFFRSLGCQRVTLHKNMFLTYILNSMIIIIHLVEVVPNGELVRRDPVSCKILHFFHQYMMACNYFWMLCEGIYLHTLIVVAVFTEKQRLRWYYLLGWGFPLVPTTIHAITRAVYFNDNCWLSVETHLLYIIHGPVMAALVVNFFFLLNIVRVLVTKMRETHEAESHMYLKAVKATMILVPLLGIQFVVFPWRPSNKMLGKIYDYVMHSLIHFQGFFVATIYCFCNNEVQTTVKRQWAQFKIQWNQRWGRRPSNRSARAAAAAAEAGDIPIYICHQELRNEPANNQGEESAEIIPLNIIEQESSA

Turning to `CC[C@H](C)[C@H](NC(=O)[C@@H]1CCCN1C(=O)CNC(=O)[C@H](Cc1ccccc1)NC(=O)[C@H](CC(N)=O)NC(=O)[C@H](CC(N)=O)NC(=O)[C@H](CO)NC(=O)[C@H](CO)NC(=O)[C@H](Cc1c[nH]cn1)NC(=O)[C@H](CCCNC(=N)N)NC(=O)[C@H](CC(C)C)NC(=O)[C@H](Cc1ccccc1)NC(=O)[C@H](CC(N)=O)NC(=O)[C@H](C)NC(=O)[C@H](CC(C)C)NC(=O)[C@H](CCCNC(=N)N)NC(=O)[C@H](CCC(N)=O)NC(=O)[C@@H](NC(=O)[C@H](C)NC(=O)[C@@H]1CSSC[C@H](NC(=O)[C@H](CCCCN)NC(=O)[C@H](CCCNC(=N)N)NC(=O)CC[C@H](NC(=O)CCCCCCCCCCCCCCCCC(=O)O)C(=O)O)C(=O)N[C@@H](CC(N)=O)C(=O)N[C@@H]([C@@H](C)O)C(=O)N[C@@H](C)C(=O)N[C@@H]([C@@H](C)O)C(=O)N1)[C@@H](C)O)C(=O)N[C@@H](CC(C)C)C(=O)N1CCC[C@H]1C(=O)N1CCC[C@H]1C(=O)N[C@H](C(=O)N[C@@H](CC(N)=O)C(=O)N[C@H](C(=O)NCC(=O)N[C@@H](CO)C(=O)N[C@@H](CC(N)=O)C(=O)N[C@H](C(=O)N[C@@H](Cc1ccc(O)cc1)C(N)=O)[C@@H](C)O)C(C)C)[C@@H](C)O` [Example 26, N-alpha-[(S)-4-Carboxy-4-(17-carboxyheptadecanoylamino)butyryl]-Arg-[Arg17]-pramlintide] ({C18 diacid-γGlu}-RKCNTATCATQRLANFLRHSSNNFGPILPPTNVGSNTY-NH2; disulfide 3-8), for the setting “read-out: Potency Luciferase”, the EC50 came out at 0.05 nM.
The same measure, in the same setting: under `CC[C@H](C)[C@H](NC(=O)[C@@H]1CCCN1C(=O)CNC(=O)[C@H](Cc1ccccc1)NC(=O)[C@H](CC(N)=O)NC(=O)[C@H](CC(N)=O)NC(=O)[C@H](CO)NC(=O)[C@H](CO)NC(=O)[C@H](Cc1c[nH]cn1)NC(=O)[C@H](Cc1c[nH]cn1)NC(=O)[C@H](CC(C)C)NC(=O)[C@H](Cc1ccccc1)NC(=O)[C@H](CC(N)=O)NC(=O)[C@H](C)NC(=O)[C@H](CC(C)C)NC(=O)[C@H](CCCNC(=N)N)NC(=O)[C@H](CCC(N)=O)NC(=O)[C@@H](NC(=O)[C@H](C)NC(=O)[C@@H]1CSSC[C@H](NC(=O)[C@H](CCCCN)NC(=O)[C@H](Cc2c[nH]cn2)NC(=O)CC[C@H](NC(=O)CCCCCCCCCCCCCCCCCCC(=O)O)C(=O)O)C(=O)N[C@@H](CC(N)=O)C(=O)N[C@@H]([C@@H](C)O)C(=O)N[C@@H](C)C(=O)N[C@@H]([C@@H](C)O)C(=O)N1)[C@@H](C)O)C(=O)N[C@@H](CC(C)C)C(=O)N1CCC[C@H]1C(=O)N1CCC[C@H]1C(=O)N[C@H](C(=O)N[C@@H](CC(N)=O)C(=O)N[C@H](C(=O)NCC(=O)N[C@@H](CO)C(=O)N[C@@H](CC(N)=O)C(=O)N[C@H](C(=O)N[C@@H](Cc1ccc(O)cc1)C(N)=O)[C@@H](C)O)C(C)C)[C@@H](C)O` [Example 28, N-alpha-[(S)-4-Carboxy-4-(19-carboxynonadecanoylamino)butyryl]-His-[His17]-pramlintide] ({C20 diacid-γGlu}-HKCNTATCATQRLANFLHHSSNNFGPILPPTNVGSNTY-NH2; disulfide 3-8) stands 0.1 nM.
On the same count and under the same terms, under `CC[C@H](C)[C@H](NC(=O)[C@@H]1CCCN1C(=O)CNC(=O)[C@H](Cc1ccccc1)NC(=O)[C@H](CC(N)=O)NC(=O)[C@H](CC(N)=O)NC(=O)[C@H](CO)NC(=O)[C@H](CO)NC(=O)[C@H](Cc1c[nH]cn1)NC(=O)[C@H](Cc1c[nH]cn1)NC(=O)[C@H](CC(C)C)NC(=O)[C@H](Cc1ccccc1)NC(=O)[C@H](CC(N)=O)NC(=O)[C@H](C)NC(=O)[C@H](CC(C)C)NC(=O)[C@H](CCCNC(=N)N)NC(=O)[C@H](CCC(N)=O)NC(=O)[C@@H](NC(=O)[C@H](C)NC(=O)[C@@H]1CSSC[C@H](NC(=O)CCCNC(=O)CCCCCCCCCCCCCCCCCCC(=O)O)C(=O)N[C@@H](CC(N)=O)C(=O)N[C@@H]([C@@H](C)O)C(=O)N[C@@H](C)C(=O)N[C@@H]([C@@H](C)O)C(=O)N1)[C@@H](C)O)C(=O)N[C@@H](CC(C)C)C(=O)N1CCC[C@H]1C(=O)N1CCC[C@H]1C(=O)N[C@H](C(=O)N[C@@H](CC(N)=O)C(=O)N[C@H](C(=O)NCC(=O)N[C@@H](CO)C(=O)N[C@@H](CC(N)=O)C(=O)N[C@H](C(=O)N[C@@H](Cc1ccc(O)cc1)C(N)=O)[C@@H](C)O)C(C)C)[C@@H](C)O` [Example 30, N-alpha-[4-(19-Carboxynonadecanoylamino)butyryl]-[His17]-pramlintide (2-37)] ({C20 diacid-GABA}-CNTATCATQRLANFLHHSSNNFGPILPPTNVGSNTY-NH2; disulfide 1-6) stands 0.06 nM; under `CC[C@H](C)[C@H](NC(=O)[C@@H]1CCCN1C(=O)CNC(=O)[C@H](Cc1ccccc1)NC(=O)[C@H](CC(N)=O)NC(=O)[C@H](CC(N)=O)NC(=O)[C@H](CO)NC(=O)[C@H](CO)NC(=O)[C@H](Cc1c[nH]cn1)NC(=O)[C@H](Cc1c[nH]cn1)NC(=O)[C@H](CC(C)C)NC(=O)[C@H](Cc1ccccc1)NC(=O)[C@H](CC(N)=O)NC(=O)[C@H](C)NC(=O)[C@H](CC(C)C)NC(=O)[C@H](CCCNC(=N)N)NC(=O)[C@H](CCC(N)=O)NC(=O)[C@@H](NC(=O)[C@H](C)NC(=O)[C@@H]1CSSC[C@H](NC(=O)[C@H](Cc2c[nH]cn2)NC(=O)CC[C@H](NC(=O)CCCCCCCCCCCCCCCCC(=O)O)C(=O)O)C(=O)N[C@@H](CC(N)=O)C(=O)N[C@@H]([C@@H](C)O)C(=O)N[C@@H](C)C(=O)N[C@@H]([C@@H](C)O)C(=O)N1)[C@@H](C)O)C(=O)N[C@@H](CC(C)C)C(=O)N1CCC[C@H]1C(=O)N1CCC[C@H]1C(=O)N[C@H](C(=O)N[C@@H](CC(N)=O)C(=O)N[C@H](C(=O)NCC(=O)N[C@@H](CO)C(=O)N[C@@H](CC(N)=O)C(=O)N[C@H](C(=O)N[C@@H](Cc1ccc(O)cc1)C(N)=O)[C@@H](C)O)C(C)C)[C@@H](C)O` [Example 32, N-alpha-[(S)-4-Carboxy-4-(17-carboxyheptadecanoylamino)butyryl]-[His1,His17]-pramlintide] ({C18 diacid-γGlu}-HCNTATCATQRLANFLHHSSNNFGPILPPTNVGSNTY-NH2; disulfide 2-7), 0.08 nM.
In the case of `CC[C@H](C)[C@H](NC(=O)[C@@H]1CCCN1C(=O)CNC(=O)[C@H](Cc1ccccc1)NC(=O)[C@H](CC(N)=O)NC(=O)[C@H](CC(N)=O)NC(=O)[C@H](CO)NC(=O)[C@H](CO)NC(=O)[C@H](Cc1c[nH]cn1)NC(=O)[C@H](Cc1c[nH]cn1)NC(=O)[C@H](CC(C)C)NC(=O)[C@H](Cc1ccccc1)NC(=O)[C@H](CC(N)=O)NC(=O)[C@H](C)NC(=O)[C@H](CC(C)C)NC(=O)[C@H](CCCNC(=N)N)NC(=O)[C@H](CCC(N)=O)NC(=O)[C@@H](NC(=O)[C@H](C)NC(=O)[C@@H]1CSSC[C@H](NC(=O)[C@H](Cc2c[nH]cn2)NC(=O)CC[C@H](NC(=O)[C@H]2CC[C@H](CNC(=O)CCCCCCCCCCCCCCCCCCC(=O)O)CC2)C(=O)O)C(=O)N[C@@H](CC(N)=O)C(=O)N[C@@H]([C@@H](C)O)C(=O)N[C@@H](C)C(=O)N[C@@H]([C@@H](C)O)C(=O)N1)[C@@H](C)O)C(=O)N[C@@H](CC(C)C)C(=O)N1CCC[C@H]1C(=O)N1CCC[C@H]1C(=O)N[C@H](C(=O)N[C@@H](CC(N)=O)C(=O)N[C@H](C(=O)NCC(=O)N[C@@H](CO)C(=O)N[C@@H](CC(N)=O)C(=O)N[C@H](C(=O)N[C@@H](Cc1ccc(O)cc1)C(N)=O)[C@@H](C)O)C(C)C)[C@@H](C)O` [Example 33, N-alpha-[4-Carboxy-4-({4-[(19-carboxynonadecanoylamino)methyl]transcyclohexanecarbonyl}amino)butyryl]-[His1,His17]-pramlintide] ({C20 diacid-Trx-γGlu}-HCNTATCATQRLANFLHHSSNNFGPILPPTNVGSNTY-NH2; disulfide 2-7; C-terminus assumed), for the setting “Potency Luciferase”, the EC50 worked out at 0.1 nM.
Regarding `CC[C@H](C)[C@H](NC(=O)[C@@H]1CCCN1C(=O)CNC(=O)[C@H](Cc1ccccc1)NC(=O)[C@H](CC(N)=O)NC(=O)[C@H](CC(N)=O)NC(=O)[C@H](CO)NC(=O)[C@H](CO)NC(=O)[C@H](Cc1c[nH]cn1)NC(=O)[C@H](CCCNC(=N)N)NC(=O)[C@H](CC(C)C)NC(=O)[C@H](Cc1ccccc1)NC(=O)[C@H](CC(N)=O)NC(=O)[C@H](C)NC(=O)[C@H](CC(C)C)NC(=O)[C@H](CCCNC(=N)N)NC(=O)[C@H](CCC(N)=O)NC(=O)[C@@H](NC(=O)[C@H](C)NC(=O)[C@@H]1CSSC[C@H](NC(=O)[C@H](Cc2c[nH]cn2)NC(=O)[C@H](Cc2c[nH]cn2)NC(=O)COCCOCCNC(=O)CC[C@H](NC(=O)CCCCCCCCCCCCCCCCCCC(=O)O)C(=O)O)C(=O)N[C@@H](CC(N)=O)C(=O)N[C@@H]([C@@H](C)O)C(=O)N[C@@H](C)C(=O)N[C@@H]([C@@H](C)O)C(=O)N1)[C@@H](C)O)C(=O)N[C@@H](CC(C)C)C(=O)N1CCC[C@H]1C(=O)N1CCC[C@H]1C(=O)N[C@H](C(=O)N[C@@H](CC(N)=O)C(=O)N[C@H](C(=O)NCC(=O)N[C@@H](CO)C(=O)N[C@@H](CC(N)=O)C(=O)N[C@H](C(=O)N[C@@H](Cc1ccc(O)cc1)C(N)=O)[C@@H](C)O)C(C)C)[C@@H](C)O` [Example 34, N-alpha-[2-(2-{2-[4-(S)-Carboxy-4-(19-carboxynonadecanoylamino)butyrylamino]ethoxy}ethoxy)acetyl]-His-[His1,Arg17]-pramlintide] ({C20 diacid-γGlu-AEEA}-HHCNTATCATQRLANFLRHSSNNFGPILPPTNVGSNTY-NH2; disulfide 3-8), where the note is “read-out: Potency Luciferase”, the EC50 was 0.2 nM.
